What was measured:
sunburn cells = details: supplementation, humans; cited from earlier work
MMP-1 = assay: ELISA of MMP-1 release into cell culture supernatant of HaCaT cells; type: cell-based, human
Experimental: HaCaT cells were supplemented with 0.5, 1.5, or 3 μM β-carotene for 2 days prior to UVA (270 kJ/m^2) irradiation. MMP-1 and TIMP-1 secretion 24 hours after irradiation was analyzed by ELISA. Each condition was represented by three replicates in the experiment. Values are means±standard error.
Release of MMP-1, and TIMP-1 into cell culture supernatant was determined by ELISA at 24 hours after irradiation. MMP-1 and TIMP-1 release was measured using MMP-1 and TIMP ELISA from CALBIOCHEM (San Diego, Calif., USA). The ELISAs were performed according to the manufacturer's instructions.

RXRα = assay: QRT-PCR gene expression in HaCaT cells with or without UVA; type: cell-based, human
Experimental: (§1) HaCaT cells were obtained from Prof. Fusenig, German Cancer Research Centre, Heidelberg. […] The accuracy of cell counting was approximately 99%.
(§2) On day 3 of the experiment, cells were washed six times with Ca/Mg-free PBS containing 2% BSA, and then irradiated with light with a Hönle sun lamp Sol 500 (Dr. Hönle, Plannegg, Germany) at a dose of 270 kJ/m^2 in Ca/Mg-free PBS (2 hour exposure time at […]). The experimental schedule was chosen because the cells had optimal UVA sensitivity after 48 hours in culture. […] Confluent cultures were much less sensitive to irradiation.
(§3) After irradiation, the cells were supplied with fresh β-carotene-containing serum-free medium and kept in the incubator at 37° C., 5% CO2 until harvest of the samples. In experiments in which the half-life of ^1O2 was prolonged by D2O to enhance its effect, PBS was prepared in D2O, instead of in H2O, as it was done for the standard conditions described above. Cells were washed twice in D2O-PBS prior to irradiation in D2O-PBS. After irradiation, cells were maintained with fresh β-carotene-containing serum-free medium. Sham controls were treated in an identical manner, by placing them under the solar simulator but shielded from light.
(§4) Total RNA was isolated by using Trizol™ (Invitrogen, Basel, Switzerland) according to the instructions of the manufacturer. Random-primed cDNA was synthesized using the Superscript pre-amplification system for first strand cDNA synthesis (Invitrogen).
(§5) cDNA corresponding to 10 ng total RNA was used as template to quantify the relative RNA expression of the genes of interest by TaqMan® real time PCR.
(§6) The PCR analyses were carried out in triplicate and in a multiplex setup, using 18S rRNA as a calibrator gene. The rRNA primers were used at a final concentration of 50 nM, the probe at 100 nM. For quantification of the genes of interest, the primer concentrations were optimized for sensitivity of template detection. […] PCR reactions were carried out for 40 cycles of 95° C. for 15 seconds and 60° C. for 1 minute in an ABI7700 (Applied Biosystems, Rotkreuz, Switzerland). Regulation of gene expression was calculated as described in user bulletin #2 provided by the manufacturer. A threshold cycle (“CT”) is the first PCR cycle in which an amplification signal is detected. Expression levels are given as δCT values. The δCT value describes the level of gene expression as the average PCR cycle, in which the gene of interest was detected first (CT value), subtracted by the CT value of the calibrator gene 18S rRNA (CTgene of interest−CTcalibrating gene), 18S rRNA served as a measure for the amount of template in the reaction. Routinely, 18S rRNA was detected between PCR cycle 12 and 13 (SE=standard error) A low δCT corresponds to a high mRNA level.
(§7) HaCaT cells were pretreated for 2 days with 0.5, 1.5 or 3 μM β-carotene. The cells were irradiated with UVA (270 kJ/m^2) either in D2O-containing PBS or in H2O-containing PBS, to analyze ^1O2 inducibility of genes. Gene expression 5 hours after UVA irradiation was analyzed by QRT-PCR. Values are geometric means±standard error from three independent experiments. Upregulations greater than 1.5-fold are labelled in bold black, downregulations below 0.66-fold are bold grey.

RARβ = assay: as above; type: cell-based, human
Experimental: as §1, §2, §3, §4, §5, §6, §7

RARα = assay: as above; type: cell-based, human
Experimental: as §1, §2, §3, §4, §5, §6, §7

RARγ = assay: as above; type: cell-based, human
Experimental: as §1, §2, §3, §4, §5, §6, §7

RXRγ = assay: as above; type: cell-based, human
Experimental: as §1, §2, §3, §4, §5, §6, §7

For `CC1=C(/C=C/C(C)=C/C=C/C(C)=C/C=C/C=C(C)/C=C/C=C(C)/C=C/C2=C(C)CCCC2(C)C)C(C)(C)CCC1` [β-carotene, All-E-β-carotene], the “number of sunburn cells” value (sunburn cells) is given as “did not alter the number of sunburn cells”, the “UVA-induced MMP-1 production, protein level” value (MMP-1; 24 hours after UVA) is given as “Downregulation” and the “basal MMP-1 protein expression” value (MMP-1; unirradiated cells) is given as “tended to reduce”. The “basal or UVA-regulated expression level of RXRα” value (RXRα) was “no significant effect”, the RXRα fold induction (RXRα; D2O, UVA/βC 0.5 μM) was 0.68 fold and the RXRα fold induction (RXRα; D2O, UVA/βC 1.5 μM) was 0.31 fold. For the same compound, the RXRα fold induction (RXRα; D2O, UVA/βC 3 μM) was 0.38 fold, the RXRα fold induction (RXRα; D2O, βC 0.5 μM) was 1.25 fold and the RXRα fold induction (RXRα; D2O, βC 1.5 μM) was 0.82 fold. The RXRα fold induction (RXRα; D2O, βC 3 μM) was 1.06 fold, the RXRα fold induction (RXRα; H2O, UVA/βC 0.5 μM) was 0.96 fold and the RXRα fold induction (RXRα; H2O, UVA/βC 1.5 μM) was 0.27 fold. The RXRα fold induction (RXRα; H2O, UVA/βC 3 μM) was 0.58 fold, the RXRα fold induction (RXRα; H2O, βC 0.5 μM) was 0.89 fold and the RXRα fold induction (RXRα; H2O, βC 1.5 μM) was 0.98 fold. The RXRα fold induction (RXRα; H2O, βC 3 μM) was 1.13 fold, the “basal or UVA-regulated expression level of RARβ” value (RARβ) was “no significant effect” and the RARβ fold induction (RARβ; D2O, UVA/βC 0.5 μM) was 2.49 fold. For the same compound, the RARβ fold induction (RARβ; D2O, UVA/βC 1.5 μM) was 1.69 fold, the RARβ fold induction (RARβ; D2O, UVA/βC 3 μM) was 2.35 fold and the RARβ fold induction (RARβ; D2O, βC 0.5 μM) was 1.25 fold. It also gave an RARβ fold induction (RARβ; D2O, βC 1.5 μM) of 2.46 fold, an RARβ fold induction (RARβ; D2O, βC 3 μM) of 2.79 fold and an RARβ fold induction (RARβ; H2O, UVA/βC 0.5 μM) of 0.44 fold. It also gave an RARβ fold induction (RARβ; H2O, UVA/βC 1.5 μM) of 0.90 fold, an RARβ fold induction (RARβ; H2O, UVA/βC 3 μM) of 0.86 fold and an RARβ fold induction (RARβ; H2O, βC 0.5 μM) of 0.81 fold. For the same compound, the RARβ fold induction (RARβ; H2O, βC 1.5 μM) was 1.20 fold, the RARβ fold induction (RARβ; H2O, βC 3 μM) was 1.84 fold and the “RARβ induction, dose-dependent” value (RARβ; predominantly in unirradiated cells) was “non-significantly induced”. For the same compound, the “basal or UVA-regulated expression level of RARα” value (RARα) was “no significant effect”, the RARα fold induction (RARα; D2O, UVA/βC 0.5 μM) was 1.06 fold and the RARα fold induction (RARα; D2O, UVA/βC 1.5 μM) was 1.21 fold. For the same compound, the RARα fold induction (RARα; D2O, UVA/βC 3 μM) was 0.52 fold, the RARα fold induction (RARα; D2O, βC 0.5 μM) was 1.01 fold and the RARα fold induction (RARα; D2O, βC 1.5 μM) was 1.02 fold. The RARα fold induction (RARα; D2O, βC 3 μM) was 1.18 fold, the RARα fold induction (RARα; H2O, UVA/βC 0.5 μM) was 1.45 fold and the RARα fold induction (RARα; H2O, UVA/βC 1.5 μM) was 0.47 fold. It also gave an RARα fold induction (RARα; H2O, UVA/βC 3 μM) of 0.71 fold, an RARα fold induction (RARα; H2O, βC 0.5 μM) of 0.56 fold and an RARα fold induction (RARα; H2O, βC 1.5 μM) of 0.67 fold. For the same compound, the RARα fold induction (RARα; H2O, βC 3 μM) was 0.55 fold, the “basal or UVA-regulated expression level of RARγ” value (RARγ) was “no significant effect” and the RARγ fold induction (RARγ; D2O, UVA/βC 0.5 μM) was 0.63 fold. It also gave an RARγ fold induction (RARγ; D2O, UVA/βC 1.5 μM) of 0.67 fold, an RARγ fold induction (RARγ; D2O, UVA/βC 3 μM) of 0.76 fold and an RARγ fold induction (RARγ; D2O, βC 0.5 μM) of 0.94 fold. It also gave an RARγ fold induction (RARγ; D2O, βC 1.5 μM) of 1.11 fold, an RARγ fold induction (RARγ; D2O, βC 3 μM) of 1.12 fold and an RARγ fold induction (RARγ; H2O, UVA/βC 0.5 μM) of 0.85 fold. For the same compound, the RARγ fold induction (RARγ; H2O, UVA/βC 1.5 μM) was 0.15 fold, the RARγ fold induction (RARγ; H2O, UVA/βC 3 μM) was 0.54 fold and the RARγ fold induction (RARγ; H2O, βC 0.5 μM) was 0.74 fold. The RARγ fold induction (RARγ; H2O, βC 1.5 μM) was 0.86 fold, the RARγ fold induction (RARγ; H2O, βC 3 μM) was 0.90 fold and the “basal or UVA-regulated expression level of RXRγ” value (RXRγ) was “no significant effect”. It also gave an RXRγ fold induction (RXRγ; D2O, UVA/βC 0.5 μM) of 1.72 fold, an RXRγ fold induction (RXRγ; D2O, UVA/βC 1.5 μM) of 2.70 fold and an RXRγ fold induction (RXRγ; D2O, UVA/βC 3 μM) of 1.57 fold. The RXRγ fold induction (RXRγ; D2O, βC 0.5 μM) was 1.47 fold, the RXRγ fold induction (RXRγ; D2O, βC 1.5 μM) was 2.78 fold and the RXRγ fold induction (RXRγ; D2O, βC 3 μM) was 2.57 fold. For the same compound, the RXRγ fold induction (RXRγ; H2O, UVA/βC 0.5 μM) was 0.61 fold, the RXRγ fold induction (RXRγ; H2O, UVA/βC 1.5 μM) was 0.08 fold and the RXRγ fold induction (RXRγ; H2O, UVA/βC 3 μM) was 0.67 fold. The RXRγ fold induction (RXRγ; H2O, βC 0.5 μM) was 0.39 fold, the RXRγ fold induction (RXRγ; H2O, βC 1.5 μM) was 0.77 fold and the RXRγ fold induction (RXRγ; H2O, βC 3 μM) was 0.33 fold.
